# Assays:
# [1] = system: field CA1 in acute hippocampal slices from male UBEA mutant mice; assay: field EPSP recording, LTP in hippocampal slices from UBEA mutant mice (Angelman Syndrome model); type: cell-based; conditions: 200 nM
# Method: FIG. 4: Field recording of excitatory postsynaptic potentials (EPSPs) performed in stratum radiatum of field CA1 in acute hippocampal slices prepared from male UBEA mutant mice (a model of Angelman Syndrome) or their wild-type littermates in the presence or absence of 200 nM of the calpain-2 selective inhibitor, Formula I (mCalp-I in the drawing). Results are expressed as percent of the average values over a 10 min baseline period and are means±S.E.M. of the indicated number of experiments.
# A calpain 2-specific inhibitor rescues LTP impairment in hippocampal slices from a mouse model of Angelman Syndrome. Field recording of excitatory postsynaptic potentials (EPSPs) was performed in stratum radiatum of field CA1 in acute hippocampal slices prepared from male UBEA mutant mice or their wild-type littermates.
# learning and memory = assay: fear conditioning protocol; type: in vivo, mice; conditions: various doses i.p. 30 min before training
# Method: (§1) FIG. 7A: Effects of an calpain-2 selective inhibitor on fear conditioning. […] Various doses of the compound of Formula I (m-CalpI in the drawing) were injected i.p. 30 min before training to learn the association between a context or a tone with a painful stimulus. Animals were tested 24 h later for their fear responses to the context, and memory strength was quantified by the amount of time mice freeze (their biological response to fear). The ratio between the doses producing enhancement and decrease matches the ratio between the Kis to inhibit calpain-2 and calpain-1. […] Results are means±S.E.M. of 8-10 experiments. *p<0.05 (ANOVA followed by Bonferroni post-test).
# as §1, with “7B:” for “7A:”, “1 (m-CalpI)” for “I (m-CalpI in the drawing)”, “48” for “24”, “tone,” for “context,”
# Formula 1 Enhances Memory. […] In this protocol, mice were trained to learn the association between a context or a tone with a painful stimulus. Various doses of the compound of Formula 1 (mCalp-I) were injected i.p. 30 min before training. Animals were tested 24 h later in the context (FIG. 7A) and 48 h later with the tone (FIG. 7B). When tested 24 h or 48 h later for their fear responses to either the context or the tone, memory strength was quantified by the amount of time mice freeze (their biological response to fear). The ratio between the doses producing enhancement and decrease matches the ratio between the Kis to inhibit calpain-2 and calpain-1. […] Results are means±S.E.M. of 8-10 experiments. *p<0.05 (ANOVA followed by Bonferroni post-test).
# [2] = system: retina (GCL, RGC), vision; assay: acute IOP elevation, intravitreal C2l: GCL cell death, OKR visual acuity, RGC density
# Method: FIG. 12C: H&E staining in retinal sections of WT mice after IOP elevation and intravitreal injection of vehicle or C2l. Vehicle or C2l (20 μM, 1 μI) was injected 2 h after IOP elevation or sham surgery. Eyes were collected 3 days after surgery for H&E staining. Scale bar=30 μm.
# FIG. 12D: Quantification of GCL cell numbers, based on H&E stains, as described in FIG. 12C.
# FIG. 12F: OKR spatial frequency thresholds of eyes measured 3 days after IOP elevation or sham surgery. Vehicle or C2l (20 μM, 1 μI) was injected intravitreally 2 h after surgery. Surgery and injection were always performed in the right eye (OD). OKR of the Left eye (OS) was measured as control.
# One-way ANOVA followed by Bonferroni test.
# FIG. 12H: RGC density in the retina of the eyes at 21 days after surgery, as described in FIG. 12F. Eyes were collected after OKR test 21 days after surgery. Brn-3a immunostaining was performed in retinal sections of the eyes. Brn-3a-positive cells in GCL were counted.
# We used intravitreal C2l injection in order to locally deliver C2l to retina. First, we tested the delivery efficiency by injecting different doses of C2l intravitreally 2 h after IOP elevation in calpain-1 KO mice and analyzing SBDP levels in IPL at 4 h (FIG. 12A and B). […] In all subsequent experiments, 20 μM (1 μl) was used to examine the neuroprotective effects of intravitreal C2l injection. Eyes were collected 3 days after surgery for H&E staining.
# To examine vision of mice after glaucoma, we tested the optokinetic reflex (OKR) in mice (FIG. 15A). OKR is the saccadic eye movement triggered by the movement of gratings in front of the mouse eye. Changing the frequency of gratings and determining the […] frequency triggering OKR, allows analyzing visual acuity of each eye. Acute IOP elevation or sham surgery was performed in the right eye (OD). Left eye (OS) served as a naive control. Intravitreal C2l or vehicle injection was performed 2 h after surgery. Three and 21 days after surgery, OKR was determined in both eyes (FIG. 5f,g). […] Mice were sacrificed after OKR test at day 21 and RGC densities were analyzed with brn-3a immunostaining in retinal sections (FIG. 12H).
smiles,measurement,setting,value
"CCC(NC(=O)C(CC(C)C)NC(=O)OCc1ccccc1)C(=O)C(=O)NCc1cc(OC)cc(OC)c1 (racemic) [Formula 1, Z-Leu-Abu-CONH—CH2-C6H3 (3, 5-(OMe)2)]",LTP magnitude in slices from UBEA mutant mice,[1],restored LTP magnitude to the level found in slices from wild-type mice
same,initial increase in fEPSP elicited by TBS,[1],no effect
same,effect on learning and memory in the fear conditioning protocol,"learning and memory; context 24 h, tone 48 h",biphasic effect
same,"effect on learning and memory, fear response to the context",learning and memory; tested 24 h later,biphasic effect
same,"effect on learning and memory, fear response to the tone",learning and memory; tested 48 h later,biphasic effect
same,"RGC counts (H&E), IOP-elevated eyes","[2]; 20 μM (1 μl) intravitreal 2 h after IOP elevation, 3 days",101.3±9.2 cells/mm
same,Survival rate in GCL,"[2]; 20 μM (1 μl) intravitreal 2 h after IOP elevation, vehicle 47.2±5.4%",80.8±8.4%
same,"RGC counts (H&E), sham eye","[2]; 20 μM (1 μl) intravitreal 2 h after surgery, 3 days",128.1±7.2 cells/mm
same,RGC densities (brn-3a) in IOP elevated eyes,[2]; day 21,recovered
same,visual acuity (OKR) after increased IOP,"[2]; intravitreal 2 h after surgery, day 3 and day 21",significantly improved
same,visual acuity (OKR) of sham eye versus vehicle,[2]; intravitreal injection in the sham eye,did not affect visual acuity
